According to patent US20220202799A1, “PHARMACEUTICAL FORMULATIONS CONTAINING P2Y14 ANTAGONISTS” (priority 2019, published 2022):
Where “and” joins values, the source holds several entries; their conditions need not be identical. Identical values can stand only once. Like-named read-outs stand apart in the source and are kept apart here.

Assay: Plasma concentrations and TK parameters, 72-hour continuous intravenous infusion
Format: in vivo, Sprague-Dawley rats
Details: for Accumulation ratio (C72h/C24h) / Css / Female/Male C72h / Accumulation ratio / half-life: 72 hours of intravenous infusion; for half-life / concentration at 24 h / concentration at 48 h / concentration at 72 h / concentration at 78 h / concentration at 84 h / concentration at 96 h: Sprague-Dawley, rat, plasma; for concentration at 24 h / concentration at 48 h / concentration at 72 h / concentration at 78 h / concentration at 84 h / concentration at 96 h: female, iv
Description: The safety and pharmacokinetics of PPTN (KB-1801) in rats receiving continuous intravenous injections of SBECD-containing solutions were analyzed. Three cohorts of six male and six female rats each were given continuous intravenous infusion of PPTN (KB-1801) at 10 mg/kg/day, 30 mg/kg/day or 100 mg/kg/day in a dosing solution containing PPTN at 0.25 mg/mL, 0.75 mg/mL or 2.5 mg/mL and SBECD at about 3.8%. Dosing volume was 40 mIkg/day. [table]

[1] = Female, Group 16, 100 mg/kg/day

O=C(O)c1cc(-c2ccc(C3CCNCC3)cc2)c2ccc(-c3ccc(C(F)(F)F)cc3)cc2c1 [KB-1801, 4-[4-(piperidin-4-yl)phenyl]-7-[4-(trifluoromethyl)phenyl]-2-naphthoic acid]
Accumulation ratio (C72h/C24h) (Female, Group14, 10 mg/kg/day): 0.91 | Css (Female, Group14, 10 mg/kg/day): 606.0 ± 52.0 ng/mL | Accumulation ratio (C72h/C24h) (Female, Group 15, 30 mg/kg/day): 0.84 | Css (Female, Group 15, 30 mg/kg/day): 2037.0 ± 433.7 ng/mL | Accumulation ratio (C72h/C24h) [1]: 0.88 | Css [1]: 6595.6 ± 696.2 ng/mL | Female/Male C72h (Group14, 10 mg/kg/day): 1.05 | Female/Male C72h (Group 15, 30 mg/kg/day): 1.18 | Female/Male C72h (Group 16, 100 mg/kg/day): 0.70 | Accumulation ratio (Male, Group14, 10 mg/kg/day): 0.74 | Css (Male, Group14, 10 mg/kg/day): 636.4 ± 96.8 ng/mL | Accumulation ratio (Male, Group 15, 30 mg/kg/day): 0.86 | Css (Male, Group 15, 30 mg/kg/day): 1974.4 ± 240.2 ng/mL | Accumulation ratio (Male, Group 16, 100 mg/kg/day): 1.03 | Css (Male, Group 16, 100 mg/kg/day): 7774.6 ± 1241.3 ng/mL | half-life (Female, Group14, 10 mg/kg/day): 6.67 ± 1.21 h | half-life (Female, Group 15, 30 mg/kg/day): 7.06 ± 0.93 h | half-life [1]: 6.64 ± 0.36 h | half-life (Male, Group14, 10 mg/kg/day): 7.91 ± 1.06 h | half-life (Male, Group 15, 30 mg/kg/day): 8.29 ± 0.93 h | half-life (Male, Group 16, 100 mg/kg/day): 8.83 ± 3.33 h | Plasma concentration, individual animal (female Sprague-Dawley rats, 72-hour intravenous infusion at 10 mg/kg/day, time 24 h, 10 mg/kg/day): 784.2 ng/mL and 685.7 ng/mL | Plasma concentration, individual animal (female Sprague-Dawley rats, 72-hour intravenous infusion at 10 mg/kg/day, time 48 h, 10 mg/kg/day): 650.5 ng/mL and 588.8 ng/mL | Plasma concentration, individual animal (female Sprague-Dawley rats, 72-hour intravenous infusion at 10 mg/kg/day, time 72 h, 10 mg/kg/day): 756.4 ng/mL and 602.0 ng/mL | Plasma concentration, individual animal (female Sprague-Dawley rats, 72-hour intravenous infusion at 10 mg/kg/day, time 78 h, 10 mg/kg/day): 131.4 ng/mL and 160.1 ng/mL | Plasma concentration, individual animal (female Sprague-Dawley rats, 72-hour intravenous infusion at 10 mg/kg/day, time 84 h, 10 mg/kg/day): 103.5 ng/mL and 64.3 ng/mL | Plasma concentration, individual animal (female Sprague-Dawley rats, 72-hour intravenous infusion at 10 mg/kg/day, time 96 h, 10 mg/kg/day): 22.9 ng/mL and 15.3 ng/mL | Plasma concentration, individual animal (female Sprague-Dawley rats, 72-hour intravenous infusion at 30 mg/kg/day, time 24 h, 30 mg/kg/day): 2027.1 ng/mL and 2581.5 ng/mL | Plasma concentration, individual animal (female Sprague-Dawley rats, 72-hour intravenous infusion at 30 mg/kg/day, time 48 h, 30 mg/kg/day): 1661.0 ng/mL and 1763.6 ng/mL | Plasma concentration, individual animal (female Sprague-Dawley rats, 72-hour intravenous infusion at 30 mg/kg/day, time 72 h, 30 mg/kg/day): 1397.7 ng/mL and 2300.3 ng/mL | Plasma concentration, individual animal (female Sprague-Dawley rats, 72-hour intravenous infusion at 30 mg/kg/day, time 78 h, 30 mg/kg/day): 449.3 ng/mL and 585.0 ng/mL | Plasma concentration, individual animal (female Sprague-Dawley rats, 72-hour intravenous infusion at 30 mg/kg/day, time 84 h, 30 mg/kg/day): 453.1 ng/mL and 160.2 ng/mL and 306.2 ng/mL | Plasma concentration, individual animal (female Sprague-Dawley rats, 72-hour intravenous infusion at 30 mg/kg/day, time 96 h, 30 mg/kg/day): 75.6 ng/mL and 115.3 ng/mL | Plasma concentration, individual animal (female Sprague-Dawley rats, 72-hour intravenous infusion at 100 mg/kg/day, time 24 h, 100 mg/kg/day): 6709.0 ng/mL and 8238.2 ng/mL | Plasma concentration, individual animal (female Sprague-Dawley rats, 72-hour intravenous infusion at 100 mg/kg/day, time 48 h, 100 mg/kg/day): 5872.0 ng/mL and 8226.5 ng/mL | Plasma concentration, individual animal (female Sprague-Dawley rats, 72-hour intravenous infusion at 100 mg/kg/day, time 72 h, 100 mg/kg/day): 6680.1 ng/mL and 6734.5 ng/mL | Plasma concentration, individual animal (female Sprague-Dawley rats, 72-hour intravenous infusion at 100 mg/kg/day, time 78 h, 100 mg/kg/day): 1454.4 ng/mL and 2119.8 ng/mL | Plasma concentration, individual animal (female Sprague-Dawley rats, 72-hour intravenous infusion at 100 mg/kg/day, time 84 h, 100 mg/kg/day): 1075.5 ng/mL and 1046.1 ng/mL | Plasma concentration, individual animal (female Sprague-Dawley rats, 72-hour intravenous infusion at 100 mg/kg/day, time 96 h, 100 mg/kg/day): 211.8 ng/mL and 342.6 ng/mL | concentration at 24 h (10 mg/kg/day, female Sprague-Dawley rats, 72-hour intravenous infusion at 10 mg/kg/day, time 24 h, read-out: Plasma concentration, Mean): 688 ng/mL | concentration at 24 h (10 mg/kg/day, female Sprague-Dawley rats, 72-hour intravenous infusion at 10 mg/kg/day, time 24 h, read-out: Plasma concentration, individual animal): 595 ng/mL | concentration at 48 h (10 mg/kg/day, female Sprague-Dawley rats, 72-hour intravenous infusion at 10 mg/kg/day, time 48 h, read-out: Plasma concentration, Mean): 654 ng/mL | concentration at 48 h (10 mg/kg/day, female Sprague-Dawley rats, 72-hour intravenous infusion at 10 mg/kg/day, time 48 h, read-out: Plasma concentration, individual animal): 722 ng/mL | concentration at 72 h (10 mg/kg/day, female Sprague-Dawley rats, 72-hour intravenous infusion at 10 mg/kg/day, time 72 h, read-out: Plasma concentration, Mean): 624 ng/mL | concentration at 72 h (10 mg/kg/day, female Sprague-Dawley rats, 72-hour intravenous infusion at 10 mg/kg/day, time 72 h, read-out: Plasma concentration, individual animal): 514 ng/mL | concentration at 78 h (10 mg/kg/day, female Sprague-Dawley rats, 72-hour intravenous infusion at 10 mg/kg/day, time 78 h, read-out: Plasma concentration, Mean): 147 ng/mL | concentration at 78 h (10 mg/kg/day, female Sprague-Dawley rats, 72-hour intravenous infusion at 10 mg/kg/day, time 78 h, read-out: Plasma concentration, individual animal): 150 ng/mL | concentration at 84 h (10 mg/kg/day, female Sprague-Dawley rats, 72-hour intravenous infusion at 10 mg/kg/day, time 84 h, read-out: Plasma concentration, Mean): 80.9 ng/mL | concentration at 84 h (10 mg/kg/day, female Sprague-Dawley rats, 72-hour intravenous infusion at 10 mg/kg/day, time 84 h, read-out: Plasma concentration, individual animal): 74.8 ng/mL | concentration at 96 h (10 mg/kg/day, female Sprague-Dawley rats, 72-hour intravenous infusion at 10 mg/kg/day, time 96 h, read-out: Plasma concentration, Mean): 22.5 ng/mL | concentration at 96 h (10 mg/kg/day, female Sprague-Dawley rats, 72-hour intravenous infusion at 10 mg/kg/day, time 96 h, read-out: Plasma concentration, individual animal): 29.3 ng/mL | concentration at 24 h (30 mg/kg/day, female Sprague-Dawley rats, 72-hour intravenous infusion at 30 mg/kg/day, time 24 h, read-out: Plasma concentration, Mean): 2340 ng/mL | concentration at 24 h (30 mg/kg/day, female Sprague-Dawley rats, 72-hour intravenous infusion at 30 mg/kg/day, time 24 h, read-out: Plasma concentration, individual animal): 2420 ng/mL | concentration at 48 h (30 mg/kg/day, female Sprague-Dawley rats, 72-hour intravenous infusion at 30 mg/kg/day, time 48 h, read-out: Plasma concentration, Mean): 2210 ng/mL | concentration at 48 h (30 mg/kg/day, female Sprague-Dawley rats, 72-hour intravenous infusion at 30 mg/kg/day, time 48 h, read-out: Plasma concentration, individual animal): 3220 ng/mL | concentration at 72 h (30 mg/kg/day, female Sprague-Dawley rats, 72-hour intravenous infusion at 30 mg/kg/day, time 72 h, read-out: Plasma concentration, Mean): 1970 ng/mL | concentration at 72 h (30 mg/kg/day, female Sprague-Dawley rats, 72-hour intravenous infusion at 30 mg/kg/day, time 72 h, read-out: Plasma concentration, individual animal): 2210 ng/mL | concentration at 78 h (30 mg/kg/day, female Sprague-Dawley rats, 72-hour intravenous infusion at 30 mg/kg/day, time 78 h, read-out: Plasma concentration, Mean): 544 ng/mL | concentration at 78 h (30 mg/kg/day, female Sprague-Dawley rats, 72-hour intravenous infusion at 30 mg/kg/day, time 78 h, read-out: Plasma concentration, individual animal): 597 ng/mL | concentration at 84 h (30 mg/kg/day, female Sprague-Dawley rats, 72-hour intravenous infusion at 30 mg/kg/day, time 84 h, read-out: Plasma concentration, Mean): 306 ng/mL | concentration at 96 h (30 mg/kg/day, female Sprague-Dawley rats, 72-hour intravenous infusion at 30 mg/kg/day, time 96 h, read-out: Plasma concentration, Mean): 90.8 ng/mL | concentration at 96 h (30 mg/kg/day, female Sprague-Dawley rats, 72-hour intravenous infusion at 30 mg/kg/day, time 96 h, read-out: Plasma concentration, individual animal): 81.6 ng/mL | concentration at 24 h (100 mg/kg/day, female Sprague-Dawley rats, 72-hour intravenous infusion at 100 mg/kg/day, time 24 h, read-out: Plasma concentration, Mean): 7740 ng/mL | concentration at 24 h (100 mg/kg/day, female Sprague-Dawley rats, 72-hour intravenous infusion at 100 mg/kg/day, time 24 h, read-out: Plasma concentration, individual animal): 8270 ng/mL | concentration at 48 h (100 mg/kg/day, female Sprague-Dawley rats, 72-hour intravenous infusion at 100 mg/kg/day, time 48 h, read-out: Plasma concentration, Mean): 6720 ng/mL | concentration at 48 h (100 mg/kg/day, female Sprague-Dawley rats, 72-hour intravenous infusion at 100 mg/kg/day, time 48 h, read-out: Plasma concentration, individual animal): 6070 ng/mL | concentration at 72 h (100 mg/kg/day, female Sprague-Dawley rats, 72-hour intravenous infusion at 100 mg/kg/day, time 72 h, read-out: Plasma concentration, Mean): 6840 ng/mL | concentration at 72 h (100 mg/kg/day, female Sprague-Dawley rats, 72-hour intravenous infusion at 100 mg/kg/day, time 72 h, read-out: Plasma concentration, individual animal): 7110 ng/mL | concentration at 78 h (100 mg/kg/day, female Sprague-Dawley rats, 72-hour intravenous infusion at 100 mg/kg/day, time 78 h, read-out: Plasma concentration, Mean): 1820 ng/mL | concentration at 78 h (100 mg/kg/day, female Sprague-Dawley rats, 72-hour intravenous infusion at 100 mg/kg/day, time 78 h, read-out: Plasma concentration, individual animal): 1900 ng/mL | concentration at 84 h (100 mg/kg/day, female Sprague-Dawley rats, 72-hour intravenous infusion at 100 mg/kg/day, time 84 h, read-out: Plasma concentration, Mean): 987 ng/mL | concentration at 84 h (100 mg/kg/day, female Sprague-Dawley rats, 72-hour intravenous infusion at 100 mg/kg/day, time 84 h, read-out: Plasma concentration, individual animal): 841 ng/mL | concentration at 96 h (100 mg/kg/day, female Sprague-Dawley rats, 72-hour intravenous infusion at 100 mg/kg/day, time 96 h, read-out: Plasma concentration, Mean): 281 ng/mL | concentration at 96 h (100 mg/kg/day, female Sprague-Dawley rats, 72-hour intravenous infusion at 100 mg/kg/day, time 96 h, read-out: Plasma concentration, individual animal): 288 ng/mL | Plasma concentration, individual animal (male Sprague-Dawley rats, 72-hour intravenous infusion at 10 mg/kg/day, time 24 h, 10 mg/kg/day): 547.8 ng/mL and 952.8 ng/mL | Plasma concentration, individual animal (male Sprague-Dawley rats, 72-hour intravenous infusion at 10 mg/kg/day, time 48 h, 10 mg/kg/day): 539.5 ng/mL and 752.7 ng/mL | Plasma concentration, individual animal (male Sprague-Dawley rats, 72-hour intravenous infusion at 10 mg/kg/day, time 72 h, 10 mg/kg/day): 617.8 ng/mL and 545.9 ng/mL
